Data set [1] can be described thus: Stability in peanut oil, USP on storage (comparison). To be noted: 2 weeks storage at 60° C., 50 mcg per ml peanut oil, 20160 min. It is filed as physicochemical.
The nature of data set [2]: Stability of an E-type prostaglandin in propylene glycol dicaprylate/dicaprate (Captex 200) on storage. It is filed as physicochemical. The following applies: for % Remaining of Initial Drug Concentration: 0.25 mg/ml in Captex 200, sealed glass ampules. As for the experimental part: A solution of 0.25 mg (dl)-9-keto-11α,15α-dihydroxy-16-phenoxy-17,18,19,20-tetranorprosta-4,5,13-trans-trienoic acid methyl ester per ml in propylene glycol dicaprylate/dicaprate (Captex 200) was made by dissolving said compound in the solvent with the aid of a magnetic stirrer. Aliquots of this solution were filled into glass ampules and sealed. The ampules were then stored at various temperatures for various durations.

The molecule `COC(=O)CCC=C=CCC1C(=O)CC(O)C1C=CC(O)COc1ccccc1` (stereo not drawn) [(dl)-9-keto-11α,15α-dihydroxy-16-phenoxy-17,18,19,20-tetranorprosta-4,5,13-trans-trienoic acid methyl ester] displayed a drug remaining in data set [1] of 77.8%. In addition, the “% Remaining of Initial Drug Concentration” value in data set [2] (0 month, 45° C.) stood at 100%; in data set [2] (0 month, 60° C.), 100%; in data set [2] (1 month, 60° C., 43800 min) it was 97.6%; in data set [2] (3 months, 45° C., 131400 min), 100.7%; in data set [2] (3 months, 60° C., 131400 min), 90.0%. For the same molecule, the “stability in Captex 200 (in words)” value in data set [2] (storage at 45° C. and 60° C., 0.25 mg/ml in Captex 200) was “quite stable”.

(Values after patent publication US4409239A, “Propylene glycol diester solutions of PGE-type compounds” (Syntex (U.S.A.) Inc., priority 1982, dated 1983).)
